Test results as given in paper PMC6407204, “Oral administration of the cannabigerol derivative VCE-003.2 promotes subventricular zone neurogenesis and protects against mutant huntingtin-induced neurodegeneration” (Translational Neurodegeneration, 2019).

Experiments:
[1] = tested on: 3-NP model of striatal neurodegeneration; experiment: 3-Nitropropionic acid (3-NP) model of striatal neurodegeneration; assay type: in vivo, C57BL/6 N male mice; conditions: 10 mg/kg oral gavage every 24 h, sesame oil
Procedure: Supplementary file 40035_2019_148_MOESM6_ESM.pdf: Additional file 6: 3-Nitroproprionic acid model of striatal neurodegeneration. 16-week- old C57BL/6 N male mice (Harlan Ibérica, Barcelona, Spain) were subjected to seven intraperitoneal (i.p.) injections of 50 mg/kg 3-NP (one injection each every 12 h prepared in phosphate-buffered saline (PBS)]. 3-NP-treated animals and their respective non-lesioned controls (injected with PBS) were used for pharmacological studies with VCE-003.2. Treatments consisted of oral gavage every 24 h with VCE-003.2 at a dose of 10 mg/kg using sesame oil as vehicle. 12 h after the last injection of 3-NP motor activity, hindlimb clasping and kyphosis were evaluated as previously described. Animals were euthanized at the indicated time after huntingtin-AAV infection or 12 h after the last injection of 3NP and their brains removed. Statistical analysis: One-way ANOVA followed by the Tuckey’s post hoc test was used to determine the statistical significance. All the in vivo data were expressed as mean ± SEM. […]

CYP1A = target: T1, CYP1A (Homo sapiens, UniProt P05177); assay type: in vitro ADME; conditions: Substrate = Etoxyresorufin, human liver microsomes
T1 construct: from tissue; host or cells: human liver microsomes
Procedure: (§1) Supplementary file 40035_2019_148_MOESM2_ESM.pdf: Additional file 2: Cytochrome P450 Inhibition (IC50 Determination). CYP1A Inhibition. VCE-003.2 (0.1, 0.25, 1, 2.5, 10, 25 μM in DMSO; final DMSO concentration = 0.3%) was incubated with human liver microsomes (0.25 mg/mL) and NADPH (1 mM) in the presence of the probe substrate ethoxyresorufin (0.5 μM) for 5 min at 37 °C. The selective CYP1A inhibitor, alpha-naphthoflavone, was screened alongside the test compounds as a positive control. CYP2B6 Inhibition. VCE-003.2 (0.1, 0.25, 1, 2.5, 10, 25 μM in DMSO; final DMSO concentration = 0.3%) was incubated with human liver microsomes (0.1 mg/mL) and NADPH (1 mM) in the presence of the probe substrate bupropion (110 μM) for 5 min at 37 °C. The selective CYP2B6 inhibitor, ticlopidine, was screened alongside the test compounds as a positive control. CYP2C8 Inhibition. […] For the CYP1A incubations, the reactions were terminated by methanol, and the formation of the metabolite, resorufin, was monitored by fluorescence (excitation wavelength = 535 nm, emission wavelength = 595 nm). […] Hydroxybupropion, 6α-hydroxypaclitaxel and 6ß-hydroxytestosterone were analyzed separately by LC-MS/MS. […]

[2] = tested on: relevant cytochrome P450 isoforms; assay type: in vitro ADME; conditions: human liver microsomes, up to 25 μM
Procedure: as §1

T1 sequence (P05177 2-516 limits assumed): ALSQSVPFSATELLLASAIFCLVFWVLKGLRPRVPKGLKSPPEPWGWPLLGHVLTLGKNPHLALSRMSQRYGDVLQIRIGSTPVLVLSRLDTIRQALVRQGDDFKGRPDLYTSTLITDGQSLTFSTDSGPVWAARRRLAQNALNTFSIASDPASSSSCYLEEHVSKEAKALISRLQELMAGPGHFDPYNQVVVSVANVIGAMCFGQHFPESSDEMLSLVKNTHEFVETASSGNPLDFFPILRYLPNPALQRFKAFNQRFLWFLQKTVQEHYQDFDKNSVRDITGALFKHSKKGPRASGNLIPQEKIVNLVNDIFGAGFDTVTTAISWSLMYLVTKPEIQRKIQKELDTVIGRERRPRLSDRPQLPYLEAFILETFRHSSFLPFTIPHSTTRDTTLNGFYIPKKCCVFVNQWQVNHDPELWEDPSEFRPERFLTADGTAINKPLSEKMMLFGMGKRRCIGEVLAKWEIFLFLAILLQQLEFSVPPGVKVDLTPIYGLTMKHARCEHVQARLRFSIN

SMILES: CCCCCC1=C(NCC)C(=O)C(CC=C(C)CCC=C(C)C)=C(O)C1=O [VCE-003.2, 2-(3,7-dimethyl-octa-2,6-dienyl)-6-ethylamino-3-hydroxy-5-pentyl-(1,4) benzoquinone]
- neuroprotection and anti-inflammatory effect in 3-NP model [1]: neuroprotective and anti-inflammatory
- IC50 (CYP1A): > 25 µM
- inhibition of cytochrome P450 isoforms (in words) [2]: did not inhibit significantly
